Measurements as given in ChEMBL document CHEMBL1146766, “Synthesis of 3a,4-dihydro-3H-[1]benzopyrano[4,3-c]isoxazoles, displaying combined 5-HT uptake inhibiting and alpha2-adrenoceptor antagonistic activities. Part 2: Further exploration on the cinnamyl moiety” (Bioorg Med Chem Lett, 2004).

Assays:
[1] = target: Adrenergic receptor alpha-2 (Rattus norvegicus) (UniProt P22086+P19328+P22909); experiment: Inhibition ofmedetomidine-induced loss of righting, which evaluates the ability to block central alpha-2-adrenoceptor; assay type: functional
[2] = target: T1, Alpha-2A adrenergic receptor (Homo sapiens, UniProt P08913); experiment: In vitro binding affinity to the human alpha-2A adrenergic receptor
T1 sequence (P08913 whole entry): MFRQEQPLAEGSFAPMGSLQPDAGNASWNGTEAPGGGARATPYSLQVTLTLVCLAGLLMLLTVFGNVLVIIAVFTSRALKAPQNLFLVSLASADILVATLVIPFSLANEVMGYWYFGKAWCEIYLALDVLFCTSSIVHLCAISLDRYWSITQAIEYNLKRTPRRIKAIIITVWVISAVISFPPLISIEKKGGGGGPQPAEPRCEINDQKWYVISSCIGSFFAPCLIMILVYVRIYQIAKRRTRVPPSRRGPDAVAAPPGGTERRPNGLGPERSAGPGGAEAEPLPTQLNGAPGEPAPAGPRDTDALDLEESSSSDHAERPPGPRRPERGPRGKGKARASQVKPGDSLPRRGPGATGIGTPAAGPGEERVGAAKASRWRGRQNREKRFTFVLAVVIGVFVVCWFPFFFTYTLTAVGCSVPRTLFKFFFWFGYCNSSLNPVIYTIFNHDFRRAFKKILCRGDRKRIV

[3] = target: T2, Alpha-2C adrenergic receptor (Homo sapiens, UniProt P18825); experiment: In vitro binding affinity to human alpha-2C adrenergic receptor
T2 sequence (P18825 whole entry): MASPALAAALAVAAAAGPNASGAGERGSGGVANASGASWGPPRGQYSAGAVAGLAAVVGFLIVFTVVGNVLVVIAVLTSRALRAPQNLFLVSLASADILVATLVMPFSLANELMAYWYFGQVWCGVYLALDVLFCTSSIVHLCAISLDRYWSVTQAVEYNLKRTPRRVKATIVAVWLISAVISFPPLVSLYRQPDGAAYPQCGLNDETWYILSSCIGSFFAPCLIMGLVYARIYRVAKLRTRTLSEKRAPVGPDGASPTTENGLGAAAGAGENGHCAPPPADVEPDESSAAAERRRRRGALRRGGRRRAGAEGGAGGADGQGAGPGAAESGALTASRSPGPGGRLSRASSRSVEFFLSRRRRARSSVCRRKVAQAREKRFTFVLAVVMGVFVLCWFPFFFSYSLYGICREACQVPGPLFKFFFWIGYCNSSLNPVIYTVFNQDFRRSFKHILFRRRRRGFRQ

[4] = target: Sodium-dependent serotonin transporter (Homo sapiens, UniProt P31645); experiment: In vitro binding affinity towards human serotonin transporter
Sequence of Sodium-dependent serotonin transporter (P31645 whole entry): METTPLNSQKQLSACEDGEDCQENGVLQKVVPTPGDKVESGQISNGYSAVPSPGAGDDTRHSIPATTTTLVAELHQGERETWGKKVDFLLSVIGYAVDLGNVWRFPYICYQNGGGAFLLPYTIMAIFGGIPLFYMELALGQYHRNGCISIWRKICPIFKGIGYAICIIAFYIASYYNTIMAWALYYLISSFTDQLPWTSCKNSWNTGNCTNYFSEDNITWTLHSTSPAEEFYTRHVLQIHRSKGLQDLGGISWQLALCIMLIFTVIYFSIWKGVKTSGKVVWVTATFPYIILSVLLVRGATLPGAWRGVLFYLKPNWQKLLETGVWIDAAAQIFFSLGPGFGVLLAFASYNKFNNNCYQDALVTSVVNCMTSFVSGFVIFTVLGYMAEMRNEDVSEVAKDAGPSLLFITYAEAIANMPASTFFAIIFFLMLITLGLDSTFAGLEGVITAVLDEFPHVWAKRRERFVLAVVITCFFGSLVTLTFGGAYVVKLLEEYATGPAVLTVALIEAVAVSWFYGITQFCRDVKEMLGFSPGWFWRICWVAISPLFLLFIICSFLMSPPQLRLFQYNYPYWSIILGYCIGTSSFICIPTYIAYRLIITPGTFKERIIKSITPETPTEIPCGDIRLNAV

ED50 [1] [mg/kg]	Ki [2] [nM]	Ki [3] [nM]	Ki [4] [nM]	SMILES
4.7	9	23	5.6	COc1cc2c(cc1OC)C1=NO[C@@H](CN3CCN(C/C=C/c4ccc(F)cc4)CC3)[C@@H]1CO2
10	3.4	0.7		COc1cc2c(cc1OC)C1=NO[C@@H](CN3CCN(C/C(C)=C/c4ccc(F)cc4)CC3)[C@@H]1CO2
1.25	1.4	0.3	4.8	COc1cc2c(cc1OC)C1=NO[C@@H](CN3CCN(C/C=C(\C)c4ccsc4)CC3)[C@@H]1CO2
5	1.7	0.5	21	COc1cc2c(cc1OC)C1=NO[C@@H](CN3CCN(C/C(C)=C/c4ccco4)CC3)[C@@H]1CO2
> 2.5	1.9	0.6	7.6	COc1cc2c(cc1OC)C1=NO[C@@H](CN3CCN(C/C=C(\C)c4ccc(O)cc4)CC3)[C@@H]1CO2
0.63	0.3	0.2	74	COc1cc2c(cc1OC)C1=NO[C@@H](CN3CCN(C/C=C(\C)c4cccs4)CC3)[C@@H]1CO2
> 2.5	9.3	0.8	5.4	COc1cc2c(cc1OC)C1=NO[C@@H](CN3CCN(C/C=C(\C)c4ccc(F)cc4F)CC3)[C@@H]1CO2
2.5	2.9	2.8	13	COc1cc2c(cc1OC)C1=NO[C@@H](CN3CCN(C/C=C/c4ccccc4F)CC3)[C@@H]1CO2
0.3			4.5	COc1cc2c(cc1OC)C1=NO[C@@H](CN3CCN(C/C=C(\C)c4ccccc4)CC3)[C@@H]1CO2
10	69	10	1.3	COc1cc2c(cc1OC)C1=NO[C@@H](CN3CCN(C/C=C/c4ccc(Cl)cc4)CC3)[C@@H]1CO2
10	3	0.7		COc1cc2c(cc1OC)C1=NO[C@@H](CN3CCN(C/C(C)=C/c4cccc(F)c4F)CC3)[C@@H]1CO2
3.1	22	2.1	63	COc1cc2c(cc1OC)C1=NO[C@@H](CN3CCN(C/C(C)=C/c4cccnc4)CC3)[C@@H]1CO2
0.63	1.7	0.2	2.7	COc1cc2c(cc1OC)C1=NO[C@@H](CN3CCN(C/C(C)=C/c4cccs4)CC3)[C@@H]1CO2
5	5.9	0.7	2.5	COc1cc2c(cc1OC)C1=NO[C@@H](CN3CCN(C/C=C/c4cccc(F)c4)CC3)[C@@H]1CO2
> 2.5	5.2	0.9	51	COc1cc2c(cc1OC)C1=NO[C@@H](CN3CCN(C/C=C(\C)c4ccccc4OC)CC3)[C@@H]1CO2
0.16	0.5	0.4	22	COc1cc2c(cc1OC)C1=NO[C@@H](CN3CCN(C/C=C(\C)c4ccco4)CC3)[C@@H]1CO2
1.25	1.1	0.2	1.9	COc1cc2c(cc1OC)C1=NO[C@@H](CN3CCN(C/C(C)=C/c4ccsc4)CC3)[C@@H]1CO2
2	1	0.4		COc1ccccc1/C=C(\C)CN1CCN(C[C@@H]2ON=C3c4cc(OC)c(OC)cc4OC[C@H]32)CC1
> 10			35	COc1cc2c(cc1OC)C1=NO[C@@H](CN3CCN(C/C=C\c4ccccc4)CC3)[C@@H]1CO2
2.5	0.3	0.2		COc1cc2c(cc1OC)C1=NO[C@@H](CN3CCN(C/C(C)=C/c4cc(F)ccc4F)CC3)[C@@H]1CO2
0.63	1.1	0.2		COc1cc2c(cc1OC)C1=NO[C@@H](CN3CCN(C/C(C)=C/c4cccc(F)c4)CC3)[C@@H]1CO2
			8.3	COc1cc2c(cc1OC)C1=NO[C@@H](CN3CCN(C/C=C/c4ccccc4)CC3)[C@@H]1CO2
1.3		0.2		COc1cc2c(cc1OC)C1=NO[C@@H](CN3CCN(C/C(C)=C/c4ccccc4)CC3)[C@@H]1CO2
1.25	2.9	0.3	1.3	COc1cc2c(cc1OC)C1=NO[C@@H](CN3CCN(C/C=C(\C)c4ccc(F)cc4)CC3)[C@@H]1CO2
